Measured values reported in patent US11426409B2, “Compounds, compositions and methods for treating or preventing HER-driven drug-resistant cancers” (The Regents of the University of Colorado, priority 2017, dated 2022).

System: HER2 phosphorylation
Settings: HER2-driven cell lines, 2 hours, normoxic, immunoblot

CN(C)CC=CC(=O)Nc1cc2c(Nc3ccc(F)c(Cl)c3)ncnc2cc1O[C@H]1CCOC1 [afatinib, N-[4-[(3-Chloro-4-fluorophenyl)amino]-7-[[(3S)-tetrahydro-3-furanyl]oxy]-6-quinazolinyl]-4(dimethylamino)-2-butenamide]
Concentration inhibiting HER2 phosphorylation (pHER2): 100 nM
